Test results from US12448382B2, “Heterocyclic compounds for mediating tyrosine kinase 2 activity” (GUANGZHOU INNOCARE PHARMA TECH CO., LTD., priority 2019, dated 2025).

Tests used:
[1] = target: T1, human recombinant JAK2 protein (Homo sapiens, UniProt O60674); test: JAK2 Inhibition Assay (HTRF kinase assay); format: biochemical; conditions: human recombinant JAK2, 2.5 μM ATP substrate solution
T1 construct: purchased Carna Biosciences 08-045
Protocol: The effect of the compounds of the present invention on the enzymatic activity of JAK2 was assessed by detecting the substrate phosphorylation level in a kinase reaction using the HTRF kinase assay detection kit (Cisbio, Cat. No. 62TK0PEC).
(§1) The experimental method is generally described below:
A reaction buffer contained the following components: an enzyme reaction buffer (1×), 5 mM MgCl2, 1 mM DTT and 0.01% Brij35 from the kit. A JAK2 kinase solution contained a human recombinant JAK2 protein (Carna Biosciences, 08-045) diluted in the reaction buffer to 0.15 ng/μL. A substrate reaction solution contained 2.5 μM ATP and 0.25 μM of a biotinylated tyrosine kinase substrate from the kit in the reaction buffer. A detection solution contained 0.1 ng/μL Eu^3+-labeled cage antibody (Cisbio, 61T66KLB) and 12.5 nM streptavidin-labeled XL665 (Cisbio, 610SAXLB) in the reaction buffer.
(§2) The test compound was dissolved in DMSO to 10 μM, followed by a serial 4-fold dilution with DMSO to a minimum concentration of 0.061 nM. Each concentration was further diluted 40-fold with the reaction buffer.
To a 384-well assay plate (Corning, 3674) were added 4 μL of compound solution and 2 μL of JAK2 kinase solution. The mixture was mixed and incubated at room temperature for 15 minutes, and then added with 4 μL of the substrate reaction solution. After further incubation at room temperature for 30 minutes, the reaction mixture was added with an equal volume of 10 μL detection solution and allowed to stand at room temperature for 30 minutes. An Envision plate reader (Perkin Elmer) was then used to measure the progress of the reaction at 620 nm and 665 nm. The ratio of absorbances at 665 nm and 620 nm was positively correlated with the degree of substrate phosphorylation, therefore the activity of JAK2 kinase was detected. In the experiment, the group without JAK2 kinase protein was treated as the 100% inhibition group, and the group with JAK2 kinase protein but not the test compound was treated as the 0% inhibition group. The percentage of inhibition on JAK2 kinase activity by the test compound was calculated using the following formula: Percentage of inhibition=100−100*(ratiocompound−ratio100% inhibition)/(ratio0% inhibition−ratio100% inhibition)
The IC50 value of the test compound was calculated from 8 concentration points using the XLfit softwere (ID Business Solutions Ltd., UK) by the following formula: Y=Bottom+(Top−Bottom)/(1+10^((log IC50−X)×slope factor))
Where Y was the percentage of inhibition, X was the logarithm of the concentration of the test compound. Bottom was the bottom plateau value of the S-shaped curve, Top was the top plateau value of the S-shaped curve, and slope factor was the slope coefficient of the curve.

[2] = target: T2, human recombinant TYK2 protein (Homo sapiens, UniProt P29597); test: TYK2 Inhibition Assay (HTRF kinase assay); format: biochemical; conditions: human recombinant TYK2, 11.25 μM ATP substrate solution
T2 construct: purchased Carna Biosciences 08-147
T2 sequence (P29597 871-1187 limits assumed): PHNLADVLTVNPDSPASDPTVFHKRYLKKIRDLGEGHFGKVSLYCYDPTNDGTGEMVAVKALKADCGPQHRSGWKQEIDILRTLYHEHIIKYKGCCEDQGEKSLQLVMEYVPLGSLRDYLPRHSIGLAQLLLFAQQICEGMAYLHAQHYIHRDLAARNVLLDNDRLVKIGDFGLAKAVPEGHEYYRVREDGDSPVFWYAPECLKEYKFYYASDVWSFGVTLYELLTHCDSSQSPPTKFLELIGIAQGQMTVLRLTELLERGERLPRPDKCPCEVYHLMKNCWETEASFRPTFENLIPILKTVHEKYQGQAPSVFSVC
Protocol: The effect of the compounds of the present invention on the enzymatic activity of TYK2 was assessed by detecting the substrate phosphorylation level in a kinase reaction using the HTRF kinase assay detection kit (Cisbio, Cat. No. 62TK0PEC).
as §1
A reaction buffer contained the following components: an enzyme reaction buffer (1×), 5 mM MgCl2 mM DTT and 0.01% Brij35 from the kit. A TYK2 kinase solution contained human recombinant TYK2 protein (Carna Biosciences, 08-147) diluted in the reaction buffer to 0.25 ng/μL. A substrate reaction solution contained 11.25 μM ATP and 0.5 μM of a biotinylated tyrosine kinase substrate from the kit in the reaction buffer. A detection solution contained 0.1 ng/μL Eu^3+-labeled cage antibody (Cisbio, 61T66KLB) and 25 nM streptavidin-1 added XL665 (Cisbio, 610SAXLB) in the reaction buffer.
as §2
To a 384-well assay plate (Corning, 3674) were added 4 μL of compound solution and 2 μL of TYK2 kinase solution. The mixture was mixed and incubated at room temperature for 15 minutes, and then added with 4 μL of the substrate reaction solution. After further incubation at room temperature for 40 minutes, the reaction mixture was added with an equal volume of 10 μL detection solution and allowed to stand at room temperature for 30 minutes. An Envision plate reader (Perkin Elmer) was then used to measure the progress of the reaction at 620 nm and 665 nm. The ratio of absorbances at 665 nm and 620 nm was positively correlated with the degree of substrate phosphorylation, therefore the activity of TYK2 kinase was detected. In the experiment, the group without TYK2 kinase protein was treated as the 100% inhibition group, and the group with TYK2 kinase protein but not the test compound was treated as the 0% inhibition group. The percentage of inhibition on TYK2 kinase activity by the test, compound was calculated using the following formula: Percentage of inhibition=100−100*(ratiocompound−ratio100% inhibition)/(ratio0% inhibition−ratio100% inhibition)
The IC50 value of the test compound was calculated from 8 concentration points using the XLfit software (ID Business Solutions Ltd., UK) by the following formula: Y=Bottom+(Top−Bottom)/(1+10^((log IC50−X)slope factor))
Where Y was the percentage of inhibition, X was the logarithm of the concentration of the test compound, Bottom was the bottom plateau value of the S-shaped curve, Top was the top plateau value of the S-shaped curve, and slope factor was the slope coefficient of the curve.

T1 sequence (O60674 826-1132 limits assumed): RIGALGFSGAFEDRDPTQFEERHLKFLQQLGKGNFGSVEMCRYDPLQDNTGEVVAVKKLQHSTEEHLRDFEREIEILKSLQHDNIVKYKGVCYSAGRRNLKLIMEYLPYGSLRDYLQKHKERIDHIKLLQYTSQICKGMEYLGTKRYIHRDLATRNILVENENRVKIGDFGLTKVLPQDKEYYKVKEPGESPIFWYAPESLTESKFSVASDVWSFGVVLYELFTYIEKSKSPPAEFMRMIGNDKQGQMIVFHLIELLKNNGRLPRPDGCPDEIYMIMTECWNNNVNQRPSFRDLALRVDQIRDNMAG

Row | Compound | IC50 [1] [nM] | IC50 [2] [nM]
1 | 5-chloro-4-((3aR,6aS)-3a,6a-dimethyl-5-((1-methyl-IH-pyrazol-4-yl)methyl)hexahydropyrrolo[3,4-c]pyrrol-2(1H)-yl)-N-(1-methyl-1H-pyrazol-4-yl)pyrimidin-2-amine [Compound 76] | 475 | 149
2 | Cn1cc(Nc2nccc(N3C[C@]4(C)CN(C(=O)C5CC5)C[C@]4(C)C3)n2)cn1 [Compound 1, cyc1opropyl((3aR,6aS)-3a,6a-dimethyl-5-(2((1-methyl-1H-pyrazol-4-yl)amino)pyrimidin-4-yl)hexahydropyrrolo[3,4-c]pyrrol-2(1H)-yl)methanone] | 319 | 125
3 | C[C@@]12CN(C(=O)C3CC3)C[C@]1(C)CN(c1ccnc(Nc3ccc(C(=O)O)cc3)n1)C2 [Compound 2] | 478 | 62
4 | CCNC(=O)c1ccc(Nc2nccc(N3C[C@]4(C)CN(C(=O)C5CC5)C[C@]4(C)C3)n2)cc1 [Compound 3] | 113 | 23
5 | Cn1cc(Nc2nccc(N3C[C@]4(C)CN(C(=O)C(F)(F)F)C[C@]4(C)C3)n2)cn1 [Compound 4, 1-((3aR,6aS)-3a,6a-dimethyl-5-(2((1-methyl-1H-pyrazol-4-yl)amino)pyrimidin-4-yl)hexahydropyrrolo[3,4-c]pyrrol-2(1H)-yl)-2,2,2-trifluoroethan-1-one] | 126 | 49
6 | Cn1cc(Nc2nccc(N3C[C@]4(C)CN(C(=O)C5CC5(F)F)C[C@]4(C)C3)n2)cn1 (stereo partly drawn) [Compound 5, (2,2-difluorocyclopropyl)((3aR,6aS)-3a,6a-dimethyl-5-(2-((1-methyl-1H-pyrazol-4-yl)amino)pyrimidine-4-yl)hexahydropyrrolo[3,4-c]pyrrole-2(1H)-yl)methanone] | 82 | 75
7 | CCOC(=O)N1C[C@@]2(C)CN(c3ccnc(Nc4cnn(C)c4)n3)C[C@@]2(C)C1 [Compound 6, ethyl (3aR,6aS)-3a,6a-dimethyl-5-(2-((1-methyl-1H-pyrazol-4-yl)amino)pyrimidin-4-yl)hexahydropyrrol[3,4-c]pyrrole-2(1H)-carboxylate] | 113 | 127
8 | Cn1cc(Nc2nccc(N3C[C@]4(C)CN(CCC#N)C[C@]4(C)C3)n2)cn1 [Compound 7, 3-((3aR,6aS)-3a,6a-dimethyl-5-(2-((1-methyl-1H-pyrazol-4-yl)amino)pyrimidin-4-yl)hexahydropyrrolo[3,4-c]pyrrol-2(1H)-yl)propanenitrile] | 138 | 186
9 | Cn1cc(Nc2ncc(C#N)c(N3C[C@]4(C)CN(C(=O)C5CC5)C[C@]4(C)C3)n2)cn1 [Compound 15, 4-((3aR,6aS)-5-(cyclopropanecarbonyl)-3a,6a-dimethlhexahydropyrrolo[3,4-c]pyrrol-2(1H)-yl)-2-((1-methyl-1H-pyrazol-4-yl)amino)pyrimidine-5-carbonitrile] | 551 | 186
10 | Cn1cc(Nc2ncc(Cl)c(N3C[C@]4(C)CN(Cc5ccn(C)n5)C[C@]4(C)C3)n2)cn1 [Compound 75, 5-chloro-4-((3aR,6aS)-3a,6a-dimethyl-5-((1-methyl-1H-pyrazol-3-yl)methyl)hexahydropyrrolo[3,4-c]pyrrol-2(1H)-yl)-N-(1-methyl-1H-pyrazol-4-yl)pyrimidin-2-amine] | 325 | 98
11 | Cn1cc(Nc2ncc(Cl)c(N3C[C@]4(C)CN(Cc5ncn(C)n5)C[C@]4(C)C3)n2)cn1 [Compound 77, 5-chloro-4-((3aR,6aS)-3a,6a-dimethyl-5-((1-methyl-1H-1,2,4-triazol-3-yl)methyl)hexahydropyrrolo[3,4-c]pyrrol-2(1H)-yl)-N-(1-methyl-1H-pyrazol-4-yl)pyrimidin-2-amine] | 136 | 30
12 | Cc1cc(Nc2ncc(Cl)c(N3C[C@]4(C)CN(C(=O)C5CC5)C[C@]4(C)C3)n2)no1 [Compound 93] | 91 | 158

Now those with a lower IC50 [1], led by results:

Row | IC50 [1] [nM] | IC50 [2] [nM] | Compound
13 | 25 | 66 | Cn1cc(Nc2nccc(N3C[C@]4(C)CN(C(=O)NCC#N)C[C@]4(C)C3)n2)cn1 [Compound 8, (3aR,6aS)-N-(cyanomethyl)-3a,6a-dimethyl-5-(2-((1-methyl-IH-pyrazol-4-yl)amino)pyrimidin-4-yl)hexahydropyrrolo[3,4-c]pyrrole-2(1H)-carboxamide]
14 | 38 | 13 | CCNC(=O)c1ccc(Nc2ncc(F)c(N3C[C@H]4CN(C(=O)C5CC5(F)F)C[C@H]4C3)n2)cc1 (stereo partly drawn) [Compound 9]
15 | 50 | 43 | Cn1cc(Nc2ncc(Cl)c(N3C[C@]4(C)CN(C(=O)C5CNC5)C[C@]4(C)C3)n2)cn1 [Compound 38, azetidin-3-yl((3aR,6aS)-5-(5-chloro-2-((1-methyl-1H-pyrazol-4-yl)amino)pyrimidin-4-yl)-3a,6a-dimethylhexahydropyrrolo[3,4-c]pyrrol-2(1H)-yl)methanone]
16 | 71 | 52 | Cn1cc(Nc2ncc(Cl)c(N3C[C@]4(C)CN(CCO)C[C@]4(C)C3)n2)cn1 [Compound 49, 2-((3aR,6aS)-5-(5-chloro-2-((1-methyl-1H-pyrazol-4-yl)amino)pyrimidin-4-yl)-3a,6a-dimethylhexahydropyrrolo[3,4-c]pyrrol-2(1H)-yl)ethan-1-ol]
17 | 34 | 224 | Cn1ccc(Nc2ncc(Cl)c(N3C[C@]4(C)CN(C(=O)C5CC5)C[C@]4(C)C3)n2)n1 [Compound 94, ((3aR,6aS)-5-(5-chloro-2-((1-methyl-1H-pyrazol-3-yl)amino)pyrimidin-4-yl)-3a,6a-dimethylhexahydropyrrolo[3,4-c]pyrrol-2(1H)-yl)(cyclopropyl)methanone]
18 | 8.1 | 56 | COc1cnc(Nc2cnn(C)c2)nc1N1C[C@]2(C)CN(C(=O)CC#N)C[C@]2(C)C1 [Compound 97, 3-((3aR,6aS)-5-(5-methoxy-2-((1-methyl-1H-pyrazol-4-yl)amino)pyrimidin-4-yl)-3a,6a-dimethylhexahydropyrrolo[3,4-c]pyrrol-2(1H)-yl)-3-oxopropanenitrile]
